Data reported in patent publication US20240317755A1, “HETEROCYCLIC COMPOUND, AND INTERMEDIATE THEREOF, PREPARATION METHOD THEREFOR AND USE THEREOF” (WUHAN LL SCIENCE AND TECHNOLOGY DEVELOPMENT CO., LTD., priority 2021, published 2024).
Read-outs that look alike come from different tables or passages of the source.

Assays:
[1] = molecular target: TRPC5 channel (Homo sapiens (Human), UniProt Q9UL62); assay: TRPC5 calcium flux assay (Fluo-4, FLIPR) in TRPC5-HEK 293 cells; assay type: cell-based; settings: 0.3 nM Englerin A
Chain of TRPC5 channel (Q9UL62 whole entry): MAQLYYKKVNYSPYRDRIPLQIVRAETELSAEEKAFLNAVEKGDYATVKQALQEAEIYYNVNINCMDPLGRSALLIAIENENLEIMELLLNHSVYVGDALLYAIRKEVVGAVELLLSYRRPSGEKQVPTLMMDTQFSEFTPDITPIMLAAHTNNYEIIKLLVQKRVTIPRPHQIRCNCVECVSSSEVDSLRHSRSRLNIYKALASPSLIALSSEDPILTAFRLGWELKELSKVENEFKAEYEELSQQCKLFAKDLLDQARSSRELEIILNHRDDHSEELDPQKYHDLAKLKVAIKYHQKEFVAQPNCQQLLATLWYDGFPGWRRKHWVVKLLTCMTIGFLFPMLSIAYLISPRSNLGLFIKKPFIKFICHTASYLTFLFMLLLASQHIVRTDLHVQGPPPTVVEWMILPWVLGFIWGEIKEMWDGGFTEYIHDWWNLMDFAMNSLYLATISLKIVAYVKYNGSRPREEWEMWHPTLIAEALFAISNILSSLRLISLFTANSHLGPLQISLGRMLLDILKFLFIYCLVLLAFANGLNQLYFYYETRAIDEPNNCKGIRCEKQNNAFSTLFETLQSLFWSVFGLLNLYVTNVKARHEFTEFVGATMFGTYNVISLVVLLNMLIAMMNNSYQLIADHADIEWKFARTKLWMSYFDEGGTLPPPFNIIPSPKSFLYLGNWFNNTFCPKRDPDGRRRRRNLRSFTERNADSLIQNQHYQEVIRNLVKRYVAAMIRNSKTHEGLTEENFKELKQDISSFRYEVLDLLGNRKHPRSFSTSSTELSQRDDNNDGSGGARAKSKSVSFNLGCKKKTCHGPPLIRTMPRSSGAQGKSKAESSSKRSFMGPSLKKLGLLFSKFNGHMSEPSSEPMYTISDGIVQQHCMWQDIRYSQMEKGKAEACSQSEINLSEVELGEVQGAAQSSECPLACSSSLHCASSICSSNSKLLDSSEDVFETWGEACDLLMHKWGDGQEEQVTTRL
Method: TRPC5 is a type of non-selective cation channel with permeability to calcium ions. […] Fluo-4 AM fluorescence dye was used to indirectly reflect the effect of the compound on TRPC5 channel by detecting intracellular Ca^2+ in TRPC5-HEK 293 cells.
• Revival solution: 100% high glucose DMEM • Selection medium: high glucose DMEM+10% FBS+1% P/S+1% HEPES+Blasticidin (5 μg/mL)+Hygromycine (50 μg/mL) • Induction medium: high glucose DMEM+10% FBS+1% P/S+1% HEPES+Doxycycline (1 μg/mL)
(§1) 14 hours before the real-time fluorescence experiment, cells were washed with PBS and digested with trypsin-EDTA. Cells were diluted to 200,000 cells/mL with induction medium and seeded onto a 96-well black wall bottom transparent plate coated with poly-D-lysine (PDL) (stock solution of 10 mg/mL, final concentration of 10 μg/mL) at 100 μL/well, i.e., 20,000 cells/well.
500 mL of external solution for detecting TRPC5 calcium signals: 4.0908 g of NaCl, 0.1864 g of KCl, 0.111 g of CaCl2, 0.0476 g of MgCl2, 0.9 g of glucose, 1.1915 g of HEPES (2-[4-(2-hydroxyethyl)piperazin-1-yl]ethanesulfonic acid).
Calcium fluorescent dye: an external solution for detecting TRPC5 calcium signals containing Fluo-4 with a final concentration of 4 μM (containing 0.5% BSA)
Positive inhibitor concentration: 100 nM
The dose-effect diagram was used to calculate AUC (area under the curve of the curve formed by the calcium flux signal), and the data and the log of the compound concentration were collected. The IC50 value was calculated using log[Inhibitor] vs. response Variable slope.
TRPC5 is a type of non-selective cation channel with permeability to calcium ions. […] Fluo-4 AM fluorescence dye was used to indirectly reflect the effect of the compound on TRPC5 channel by detecting intracellular […] in TRPC5-HEK 293 cells.
1. Cell culture 1.1 Revival of TRPC5-HEK 293 cells • Revival solution: 100% high glucose DMEM • Selection medium: high glucose DMEM+10% FBS+1% P/S+1% HEPES+Blasticidin (5 μg/mL)+Hygromycine (50 μg/mL) • Induction medium: high glucose DMEM+10% FBS+1% P/S+1% HEPES+Doxycycline (1 μg/mL)
as §1, with “trypsin-EDTA (TE).” for “trypsin-EDTA.”

[2] = Liver microsome half-life assay, rat; assay type: in vitro ADME; settings: liver microsomes, 1 mg/mL liver microsomal protein, 37° C., read-out: Liver microsome T½ (min) Rat
Method: The in vitro metabolic stability of the compounds of the present disclosure was determined using warm incubation method of liver microsomes in various species. A proper amount of test compound was added to the liver microsomal reaction system (1 mg/mL liver microsomal protein, 25 U/mL glucose-6-phosphate dehydrogenase, 1 mM NADP, 6 mM D-glucose 6-phosphate, 5 mM MgCl2), and the reaction was started by warm incubation in a water bath at 37° C., then 100 μL of the reaction mixture at each time point was added to a centrifuge tube containing 400 μL of internal standard working solution precooled at 0° C. (containing a solution of 200 ng/mL dexamethasone, diclofenac, tolbutamide, and labetalol in acetonitrile), then the reaction was terminated, centrifuged at 4° C. and 10,000 g for 10 min, and the supernatant was taken into LC-MS for analysis and detection to obtain in vitro metabolic half-lives of the test compounds in liver microsomes of various species.

O=C(c1ccc(F)cc1C(F)(F)F)c1cnc2n1CCN(c1cn[nH]c(=O)c1Cl)C2 [Compound 1-6, 4-chloro-5-(3-(4-fluoro-2-(trifluoromethyl)benzoyl)-5,6-dihydroimidazo[1,2-a]pyrazin-7(8H)-yl)pyridazin-3(2H)-one]
IC50 ([1]; Table 1, read-out: TRPC5 inhibitory activity, IC50): 11.5 nM | IC50 ([1]; Table 11, read-out: TRPC5 inhibitory activity, IC50): 11.5 nM | half-life [2]: 174 min
